The values that follow come from PubChem BioAssay (NCI).

Some test systems named below: SK-MEL-28 melanoma; IGROV1 ovarian; DU-145 prostate; SK-MEL-2 melanoma; SNB-75 CNS; SW-620 colon; U251 CNS; MDA-MB-231 breast; HCT-116 colon; CAKI-1 renal; MDA-MB-435; PC-3 prostate.
What all share (assay): NCI anticancer screen, dose series, 48 h

Structures are written as SMILES.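 Cultured in 96-well plates, cells were exposed to test compound for 48 hours across five concentrations. At the TGI there is no net growth.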 A value given as a limit tells only on which side of the number the result lay.

Consider `CCOC(=O)c1ccc(N=C2SC(=S)N(c3ccc(F)cc3)C2=Nc2ccc(C(=O)OCC)cc2)cc1`, for which the TGI was 42.3 µM in the assay with SK-MEL-28 melanoma; 30.8 µM in the assay on IGROV1 ovarian; over 100 µM in the assay on DU-145 prostate; 35 µM in the assay with SK-MEL-2 melanoma; 52.4 µM with SNB-75 CNS; 30 µM in the assay with SW-620 colon. Moreover, the TGI with U251 CNS came to 44.2 µM; in the assay with MDA-MB-231 breast, 25.2 µM; in the assay with HCT-116 colon it was 41.6 µM; with CAKI-1 renal it was 37.8 µM; in the assay with MDA-MB-435, 40.7 µM; in the assay on PC-3 prostate it was 40.6 µM.
As to `Cc1c2c(c(C)c3c[n+](C)ccc13)Oc1ccccc1O2`, the TGI in the assay with SK-MEL-28 melanoma is 28.6 µM; in the assay on IGROV1 ovarian, 50 µM; in the assay on DU-145 prostate, over 100 µM; in the assay on SK-MEL-2 melanoma, 41.2 µM; in the assay on SNB-75 CNS it was 17.5 µM; in the assay on SW-620 colon it was over 52.8 µM. For the same compound, the TGI was 22.3 µM in the assay on U251 CNS; over 69.8 µM in the assay with MDA-MB-231 breast; over 67.9 µM in the assay with HCT-116 colon; over 100 µM in the assay with CAKI-1 renal; 34.1 µM with MDA-MB-435; over 76.7 µM in the assay on PC-3 prostate.
For `N#CC12COC3(CCCCC3C1(C#N)C#N)OC2=N` (stereo not drawn), the TGI is 46.8 µM with SK-MEL-28 melanoma; 27.7 µM with IGROV1 ovarian; 28.7 µM with DU-145 prostate; 25.3 µM in the assay on SK-MEL-2 melanoma; 35.2 µM in the assay with SNB-75 CNS; over 100 µM with SW-620 colon. The TGI was found to be 45.5 µM in the assay with U251 CNS; 33.3 µM in the assay on MDA-MB-231 breast; 25.1 µM with HCT-116 colon; 14.2 µM in the assay with CAKI-1 renal; 64.7 µM in the assay on MDA-MB-435; 27.3 µM in the assay on PC-3 prostate.
Take `CCOC(=O)C(SCCO)C(C(=O)OCC)n1ccc(N)nc1=O` (stereo not drawn): the TGI in the assay with SK-MEL-28 melanoma, with IGROV1 ovarian, with DU-145 prostate, in the assay with SK-MEL-2 melanoma, with SNB-75 CNS and with SW-620 colon was over 100 µM each time. For the same compound, the TGI in the assay on U251 CNS, in the assay with MDA-MB-231 breast, with HCT-116 colon, in the assay with CAKI-1 renal, in the assay with MDA-MB-435 and with PC-3 prostate was over 100 µM throughout.
For `COc1cc2c(cc1C)NC(=O)/C2=C/c1c(Cl)[nH]c2cc(C)c(OC)cc12`, the TGI amounted to 24 µM in the assay with SK-MEL-28 melanoma; 16.1 µM in the assay with IGROV1 ovarian; 14.8 µM in the assay on DU-145 prostate; 22.1 µM with SK-MEL-2 melanoma; 11.8 µM in the assay with SNB-75 CNS; 19.7 µM in the assay on SW-620 colon. In addition, the TGI was 15.3 µM in the assay on U251 CNS; 33.2 µM with MDA-MB-231 breast; 18.1 µM in the assay with HCT-116 colon; 21.2 µM with CAKI-1 renal; 8.49 µM in the assay with MDA-MB-435; 21.7 µM in the assay on PC-3 prostate.
For `C1CNCCN2CCCNCCN(C1)CC2`, the TGI in the assay with SK-MEL-28 melanoma, with IGROV1 ovarian, in the assay on DU-145 prostate, in the assay on SK-MEL-2 melanoma, with SNB-75 CNS and in the assay with SW-620 colon was over 100 µM throughout. In addition, the TGI with U251 CNS, in the assay with MDA-MB-231 breast, with HCT-116 colon, with CAKI-1 renal, in the assay on MDA-MB-435 and with PC-3 prostate was over 100 µM each time.
Regarding `O=C1CCc2c3c(c4c([nH]c5ccccc54)c2CC1)C(=O)NC3=O`, the TGI with SK-MEL-28 melanoma is 12 µM; with IGROV1 ovarian, 13.7 µM; with DU-145 prostate, 42.9 µM; with SK-MEL-2 melanoma, 17.1 µM; in the assay with SNB-75 CNS, 0.61 µM; with SW-620 colon, over 100 µM. Moreover, the TGI in the assay with U251 CNS is over 100 µM; in the assay on MDA-MB-231 breast, over 100 µM; in the assay on HCT-116 colon, over 100 µM; in the assay on CAKI-1 renal, 21.2 µM; in the assay on MDA-MB-435 it was 12.3 µM; in the assay on PC-3 prostate, 70.6 µM.
Take `CCN(CC)CCN1c2ccccc2Sc2ccc3ccccc3c21`: the TGI with SK-MEL-28 melanoma was found to be 20.2 µM; in the assay with IGROV1 ovarian it was 24.5 µM; in the assay on DU-145 prostate, 12.3 µM; with SK-MEL-2 melanoma, 27.9 µM; in the assay with SNB-75 CNS it was 19.9 µM; in the assay on SW-620 colon, 24.4 µM. The TGI in the assay on U251 CNS amounted to 22.5 µM; in the assay with MDA-MB-231 breast, 18.3 µM; in the assay on HCT-116 colon, 22.9 µM; in the assay with CAKI-1 renal it was 22.7 µM; with MDA-MB-435 it was 21.2 µM; in the assay on PC-3 prostate, 19.5 µM.
Consider `COc1ccc(C2CCc3nc4nc(N)nc(N)c4cc3C2)cc1` (stereo not drawn), for which the TGI is 65 µM in the assay with SK-MEL-28 melanoma; 37.9 µM in the assay on IGROV1 ovarian; over 100 µM in the assay on DU-145 prostate; 42.3 µM in the assay with SK-MEL-2 melanoma; 5.09 µM with SNB-75 CNS; over 100 µM in the assay with SW-620 colon. For the same compound, the TGI is 29.4 µM in the assay on U251 CNS; 42 µM in the assay on MDA-MB-231 breast; over 100 µM in the assay with HCT-116 colon; over 100 µM in the assay with CAKI-1 renal; 78.2 µM in the assay with MDA-MB-435; over 100 µM in the assay with PC-3 prostate.
For the compound `CCOC(=O)C(Cc1ccc2c(c1)CCC2)(Cc1ccc2c(c1)CCC2)C(=O)OCC`, the TGI with SK-MEL-28 melanoma, in the assay on IGROV1 ovarian, in the assay on DU-145 prostate, in the assay with SK-MEL-2 melanoma, with SNB-75 CNS and with SW-620 colon was over 100 µM each time. In addition, the TGI in the assay with U251 CNS, in the assay on MDA-MB-231 breast, in the assay on HCT-116 colon, in the assay on CAKI-1 renal, in the assay on MDA-MB-435 and with PC-3 prostate was over 100 µM each time.
With `CS(C)(=O)=N/C=C\C(=O)C(Cl)(Cl)Cl`, the TGI in the assay with SK-MEL-28 melanoma, with IGROV1 ovarian, in the assay with DU-145 prostate, in the assay with SK-MEL-2 melanoma, in the assay on SNB-75 CNS and in the assay with SW-620 colon was over 100 µM in each case. In addition, the TGI in the assay on U251 CNS, with MDA-MB-231 breast, with HCT-116 colon, with CAKI-1 renal, with MDA-MB-435 and in the assay on PC-3 prostate was over 100 µM in each case.
In the case of `O=C(N=Nc1ccc([N+](=O)[O-])cc1)NNc1ccc([N+](=O)[O-])cc1`, the TGI came to 36.2 µM in the assay with SK-MEL-28 melanoma; 26.8 µM with IGROV1 ovarian; 18.4 µM with DU-145 prostate; 28.9 µM in the assay with SK-MEL-2 melanoma; 79.9 µM in the assay on SNB-75 CNS; 45.4 µM in the assay on SW-620 colon. For the same compound, the TGI in the assay on U251 CNS is 59.7 µM; with MDA-MB-231 breast, 76.2 µM; in the assay with HCT-116 colon, 30.3 µM; in the assay on CAKI-1 renal it was over 100 µM; in the assay on MDA-MB-435 it was 57.5 µM; in the assay with PC-3 prostate, 52 µM.
As for `c1ccc(Cc2cccc3cc(-c4ccc(-c5ccccc5)cc4)[nH]c23)cc1`, the TGI in the assay with SK-MEL-28 melanoma, in the assay on IGROV1 ovarian, in the assay with DU-145 prostate, with SK-MEL-2 melanoma, in the assay on SNB-75 CNS and with SW-620 colon was over 100 µM each time. Further, the TGI in the assay on U251 CNS, with MDA-MB-231 breast, with HCT-116 colon, with CAKI-1 renal, with MDA-MB-435 and in the assay with PC-3 prostate was over 100 µM in each case.
In the case of `CC1=C(C)C(=O)OC(C(C)(O)C2(O)CCC3(O)C4CC(Cl)C5(O)C(O)C=CC(=O)C5(C)C4CCC32C)C1` (stereo not drawn), the TGI is over 100 µM with SK-MEL-28 melanoma; over 100 µM in the assay on IGROV1 ovarian; over 100 µM in the assay on DU-145 prostate; over 100 µM in the assay on SK-MEL-2 melanoma; over 100 µM with SNB-75 CNS; 59.1 µM in the assay on SW-620 colon. Moreover, the TGI in the assay with U251 CNS, with MDA-MB-231 breast, in the assay with HCT-116 colon, in the assay with CAKI-1 renal, in the assay with MDA-MB-435 and in the assay with PC-3 prostate was over 100 µM in each case.
As for `O=C(CSc1nc2ccc(I)cc2c(=O)n1Cc1ccccc1)N/N=C/c1ccccc1`, the TGI in the assay with SK-MEL-28 melanoma was over 100 µM; with IGROV1 ovarian it was 36.1 µM; with DU-145 prostate it was over 100 µM; in the assay with SK-MEL-2 melanoma, 35.6 µM; in the assay with SNB-75 CNS, 28.6 µM; in the assay on SW-620 colon, over 100 µM. In addition, the TGI in the assay on U251 CNS was 33.3 µM; with MDA-MB-231 breast it was 43.3 µM; in the assay on HCT-116 colon, over 100 µM; in the assay on CAKI-1 renal, 23 µM; in the assay on MDA-MB-435 it was over 100 µM; in the assay on PC-3 prostate, 28.6 µM.
Consider `COc1cc(N=C(N)N=C(N)N)c2ncccc2c1`, for which the TGI in the assay on SK-MEL-28 melanoma, with IGROV1 ovarian, in the assay on DU-145 prostate, in the assay on SK-MEL-2 melanoma, in the assay with SNB-75 CNS and in the assay on SW-620 colon was over 100 µM throughout. Moreover, the TGI in the assay with U251 CNS, in the assay on MDA-MB-231 breast, in the assay on HCT-116 colon, with CAKI-1 renal, in the assay on MDA-MB-435 and in the assay with PC-3 prostate was over 100 µM in each case.
Turning to `NS(=O)(=O)c1ccc(NNC(=O)c2cccc3c(=O)c4ccccc4[nH]c23)cc1`, the TGI in the assay on SK-MEL-28 melanoma, in the assay on IGROV1 ovarian, with DU-145 prostate, in the assay with SK-MEL-2 melanoma, in the assay with SNB-75 CNS and with SW-620 colon was over 100 µM each time. Moreover, the TGI in the assay with U251 CNS, in the assay on MDA-MB-231 breast, with HCT-116 colon, with CAKI-1 renal, in the assay on MDA-MB-435 and with PC-3 prostate was over 100 µM in each case.
Consider `Cc1ccnc(NS(=O)(=O)c2ccc(NC(=O)c3ccc4nc5ccccc5c(Nc5ccc(S(=O)(=O)Nc6nccc(C)n6)cc5)c4c3)cc2)n1`, for which the TGI in the assay on SK-MEL-28 melanoma is over 100 µM; in the assay on IGROV1 ovarian, over 100 µM; in the assay on DU-145 prostate it was over 100 µM; with SK-MEL-2 melanoma, 39.5 µM; with SNB-75 CNS it was over 100 µM; in the assay with SW-620 colon, over 100 µM. The TGI is 41.7 µM with U251 CNS; over 100 µM in the assay on MDA-MB-231 breast; over 100 µM in the assay with HCT-116 colon; over 100 µM with CAKI-1 renal; over 100 µM with MDA-MB-435; over 100 µM in the assay on PC-3 prostate.
On to `NC(CCCCCP(=O)(O)O)C(=O)O` (stereo not drawn), for which the TGI in the assay on SK-MEL-28 melanoma, in the assay with IGROV1 ovarian, in the assay with DU-145 prostate, in the assay on SK-MEL-2 melanoma, with SNB-75 CNS and with SW-620 colon was over 100 µM in each case. The TGI with U251 CNS, in the assay with MDA-MB-231 breast, in the assay on HCT-116 colon, in the assay on CAKI-1 renal, with MDA-MB-435 and in the assay on PC-3 prostate was over 100 µM each time.
